Experimental data from ChEMBL document CHEMBL1201862, “PubChem BioAssay data set” (2004).
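These data come from cells grown in 96-well plates and exposed to compound for 48 hours at five concentrations. GI50 marks 50% less growth.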 Active and inactive are the calls of the source. No stated cut-off is given here; in the data, active = GI50 up to about 1.1 µM and inactive = higher.

Key:
Test in all cases: NCI anticancer screen, dose series, 48 h
NCI-H23 = tested on: NCI-H23
U-251 = tested on: U-251
HOP-62 = tested on: HOP-62
COLO 205 = tested on: COLO 205
786-0 = tested on: 786-0
HCT-116 = tested on: HCT-116
RPMI-8226 = tested on: RPMI-8226
SK-MEL-2 = tested on: SK-MEL-2
SK-OV-3 = tested on: SK-OV-3
KM12 = tested on: KM12
OVCAR-8 = tested on: OVCAR-8
UO-31 = tested on: UO-31
SF-539 = tested on: SF-539
OVCAR-4 = tested on: OVCAR-4
OVCAR-3 = tested on: OVCAR-3
K562 = tested on: K562
UACC-62 = tested on: UACC-62
CAKI-1 = tested on: CAKI-1

Measured: GI50

O=C(CSC(=S)N1CCCCC1)Nc1nc2c(s1)CCCC2
inactive: NCI-H23 36.6 µM | U-251 29.2 µM | HOP-62 91.4 µM | COLO 205 33.3 µM | 786-0 48.3 µM | HCT-116 12.1 µM | RPMI-8226 33.5 µM | SK-MEL-2 > 100 µM | SK-OV-3 > 100 µM | KM12 57.4 µM | OVCAR-8 58.1 µM | UO-31 33.7 µM | SF-539 34 µM | OVCAR-4 91.8 µM

C=C(C)C12CC3CC(/C(=N/O)C(C1)/C3=N\O)[C@@]2(C)O (stereo partly specified)
inactive: NCI-H23 > 100 µM | U-251 > 100 µM | HOP-62 > 100 µM | COLO 205 > 100 µM | 786-0 > 100 µM | OVCAR-3 > 100 µM | HCT-116 > 100 µM | RPMI-8226 > 100 µM | SK-MEL-2 > 100 µM | SK-OV-3 > 100 µM | K562 > 100 µM | OVCAR-8 > 100 µM | UACC-62 > 100 µM | CAKI-1 > 100 µM | UO-31 > 100 µM | SF-539 > 100 µM

O=C(c1ccc(Cl)cc1)c1ccc(OCCSCCCCCCCCCCSCCOc2ccc(C(=O)c3ccc(Cl)cc3)cc2)cc1
inactive: NCI-H23 > 100 µM | U-251 > 100 µM | HOP-62 > 100 µM | COLO 205 > 100 µM | 786-0 > 100 µM | OVCAR-3 > 100 µM | RPMI-8226 > 100 µM | SK-MEL-2 > 100 µM | SK-OV-3 > 100 µM | K562 > 100 µM | KM12 > 100 µM | OVCAR-8 > 100 µM | UACC-62 > 100 µM | CAKI-1 > 100 µM | UO-31 > 100 µM

N=C(N)N/N=C/c1oc(-c2ccc(S(=O)(=O)O)o2)c(-c2ccc(S(=O)(=O)O)o2)c1[N+](=O)[O-]
inactive: NCI-H23 > 100 µM | U-251 > 100 µM | HOP-62 > 100 µM | COLO 205 > 100 µM | 786-0 > 100 µM | OVCAR-3 > 100 µM | HCT-116 > 100 µM | SK-MEL-2 > 100 µM | SK-OV-3 > 100 µM | K562 > 100 µM | KM12 > 100 µM | OVCAR-8 > 100 µM | UACC-62 > 100 µM | CAKI-1 > 100 µM | UO-31 > 100 µM | SF-539 > 100 µM | OVCAR-4 > 100 µM

COc1cc(OC(C)=O)cc2c(OC(C)=O)ccc(OC(C)=O)c12
inactive: NCI-H23 > 100 µM | U-251 > 100 µM | HOP-62 > 100 µM | 786-0 > 100 µM | OVCAR-3 > 100 µM | HCT-116 > 100 µM | RPMI-8226 > 100 µM | SK-MEL-2 > 100 µM | K562 > 100 µM | KM12 > 100 µM | OVCAR-8 > 100 µM | UACC-62 > 100 µM | CAKI-1 > 100 µM | UO-31 > 100 µM | OVCAR-4 73.6 µM

COc1cc(Oc2c(O)c(C)c(OC)c(C(C)=O)c2O)c(C(C)=O)c(O)c1C
inactive: NCI-H23 34.4 µM | U-251 44.2 µM | HOP-62 34.3 µM | COLO 205 60.1 µM | 786-0 60.7 µM | OVCAR-3 43 µM | HCT-116 52.8 µM | SK-OV-3 > 100 µM | KM12 65.3 µM | OVCAR-8 51.6 µM | UACC-62 40.5 µM | CAKI-1 60.3 µM | UO-31 43.1 µM | SF-539 62.2 µM | OVCAR-4 45.2 µM

COC(=O)/C=C(/C(=O)OC)C1(C)c2cc(C(=O)OC)c(C(=O)OC)c(N)c2C(=N)N1c1ccccc1 (stereo unspecified)
inactive: NCI-H23 22.1 µM | U-251 20.1 µM | HOP-62 86.7 µM | COLO 205 15.9 µM | 786-0 28.6 µM | OVCAR-3 17.9 µM | HCT-116 15.8 µM | RPMI-8226 21.5 µM | SK-MEL-2 36.7 µM | SK-OV-3 34 µM | K562 18.7 µM | KM12 17.2 µM | OVCAR-8 17.4 µM | UACC-62 24.6 µM | CAKI-1 21.4 µM | UO-31 22.6 µM | SF-539 22.2 µM

CCOc1ccc2c(c1)[n+]([O-])c(-c1ccc([N+](=O)[O-])cc1)c(N)[n+]2[O-]
inactive: NCI-H23 > 100 µM | U-251 > 100 µM | HOP-62 > 100 µM | COLO 205 > 100 µM | 786-0 > 100 µM | OVCAR-3 > 100 µM | HCT-116 62.2 µM | SK-MEL-2 > 100 µM | SK-OV-3 > 100 µM | K562 > 100 µM | KM12 > 100 µM | OVCAR-8 > 100 µM | CAKI-1 > 100 µM | UO-31 43.1 µM | SF-539 > 100 µM | OVCAR-4 > 100 µM

CC(C)(C)OC(=O)NC1CCC[C@H]1O (stereo partly specified)
inactive: NCI-H23 > 100 µM | U-251 > 100 µM | HOP-62 > 100 µM | 786-0 > 100 µM | OVCAR-3 > 100 µM | HCT-116 > 100 µM | SK-MEL-2 > 100 µM | SK-OV-3 > 100 µM | K562 > 100 µM | KM12 > 100 µM | OVCAR-8 > 100 µM | UACC-62 > 100 µM | CAKI-1 > 100 µM | UO-31 > 100 µM | SF-539 > 100 µM | OVCAR-4 > 100 µM
